Tests used:
[1] = molecular target: Sigma non-opioid intracellular receptor 1 (Homo sapiens, UniProt Q99720); test: GPCRScan assay: inhibition of Sigma 1; design: radioligand conc. used [nm] 4.0 – 5.0, parental cells HEKT
[2] = molecular target: AP2-associated protein kinase 1 (Homo sapiens) (UniProt Q2M2I8); conditions: Compound concentration 1000.0 nM
[3] = molecular target: Bone morphogenetic protein receptor type-1A (Homo sapiens) (UniProt P36894); conditions: Compound concentration 1000.0 nM
[4] = molecular target: Protein-tyrosine kinase 6 (Homo sapiens) (UniProt Q13882); conditions: Compound concentration 1000.0 nM
[5] = tested on: Epidermal growth factor receptor (Homo sapiens), P00533 [G719C]; conditions: Compound concentration 1000.0 nM
[6] = tested on: Epidermal growth factor receptor (Homo sapiens), P00533 [UNDEFINED MUTATION]; conditions: Compound concentration 1000.0 nM
[7] = molecular target: Receptor tyrosine-protein kinase erbB-3 (Homo sapiens) (UniProt P21860); conditions: Compound concentration 1000.0 nM
[8] = molecular target: Serine/threonine-protein kinase/endoribonuclease IRE1 (Homo sapiens) (UniProt O75460); conditions: Compound concentration 1000.0 nM
[9] = molecular target: Fibroblast growth factor receptor 2 (Homo sapiens) (UniProt P21802); conditions: Compound concentration 1000.0 nM
[10] = molecular target: G protein-coupled receptor kinase 4 (Homo sapiens) (UniProt P32298); conditions: Compound concentration 1000.0 nM
[11] = molecular target: Glycogen synthase kinase-3 beta (Homo sapiens) (UniProt P49841); conditions: Compound concentration 1000.0 nM
[12] = molecular target: Homeodomain-interacting protein kinase 4 (Homo sapiens) (UniProt Q8NE63); conditions: Compound concentration 1000.0 nM
[13] = molecular target: Mitogen-activated protein kinase kinase kinase kinase 1 (Homo sapiens) (UniProt Q92918); conditions: Compound concentration 1000.0 nM
[14] = molecular target: Insulin receptor (Homo sapiens) (UniProt P06213); conditions: Compound concentration 1000.0 nM
[15] = molecular target: Serine/threonine-protein kinase LATS1 (Homo sapiens) (UniProt O95835); conditions: Compound concentration 1000.0 nM
[16] = molecular target: LIM domain kinase 2 (Homo sapiens) (UniProt P53671); conditions: Compound concentration 1000.0 nM
[17] = molecular target: Dual specificity mitogen-activated protein kinase kinase 2 (Homo sapiens) (UniProt P36507); conditions: Compound concentration 1000.0 nM
[18] = molecular target: Serine/threonine-protein kinase MRCK alpha (Homo sapiens) (UniProt Q5VT25); conditions: Compound concentration 1000.0 nM
[19] = molecular target: Myosin-IIIb (Homo sapiens) (UniProt Q8WXR4); conditions: Compound concentration 1000.0 nM
[20] = molecular target: Serine/threonine-protein kinase Nek1 (Homo sapiens) (UniProt Q96PY6); conditions: Compound concentration 1000.0 nM
[21] = molecular target: Serine/threonine-protein kinase Nek2 (Homo sapiens) (UniProt P51955); conditions: Compound concentration 1000.0 nM
[22] = molecular target: Serine/threonine-protein kinase Nek3 (Homo sapiens) (UniProt P51956); conditions: Compound concentration 1000.0 nM
[23] = molecular target: Mitogen-activated protein kinase 12 (Homo sapiens) (UniProt P53778); conditions: Compound concentration 1000.0 nM
[24] = molecular target: Calcium-dependent protein kinase 1 (Plasmodium falciparum) (UniProt P62344); conditions: Compound concentration 1000.0 nM
[25] = molecular target: Serine/threonine-protein kinase N2 (Homo sapiens) (UniProt Q16513); conditions: Compound concentration 1000.0 nM
[26] = molecular target: Serine/threonine-protein kinase PLK3 (Homo sapiens) (UniProt Q9H4B4); conditions: Compound concentration 1000.0 nM
[27] = molecular target: Serine/threonine-protein kinase PLK4 (Homo sapiens) (UniProt O00444); conditions: Compound concentration 1000.0 nM
[28] = molecular target: Protein kinase C delta type (Homo sapiens) (UniProt Q05655); conditions: Compound concentration 1000.0 nM
[29] = molecular target: Serine/threonine-protein kinase SIK3 (Homo sapiens) (UniProt Q9Y2K2); conditions: Compound concentration 1000.0 nM
[30] = molecular target: Serine/threonine-protein kinase RIO2 (Homo sapiens) (UniProt Q9BVS4); conditions: Compound concentration 1000.0 nM
[31] = molecular target: Rho-associated protein kinase 1 (Homo sapiens) (UniProt Q13464); conditions: Compound concentration 1000.0 nM
[32] = molecular target: Ribosomal protein S6 kinase alpha-2 (Homo sapiens) (UniProt Q15349); conditions: Compound concentration 1000.0 nM
[33] = molecular target: Serine/threonine-protein kinase SBK1 (Homo sapiens) (UniProt Q52WX2); conditions: Compound concentration 1000.0 nM
[34] = molecular target: Serine/threonine-protein kinase SIK2 (Homo sapiens) (UniProt Q9H0K1); conditions: Compound concentration 1000.0 nM
[35] = molecular target: SRSF protein kinase 1 (Homo sapiens) (UniProt Q96SB4); conditions: Compound concentration 1000.0 nM
[36] = molecular target: SRSF protein kinase 3 (Homo sapiens) (UniProt Q9UPE1); conditions: Compound concentration 1000.0 nM
[37] = molecular target: Serine/threonine-protein kinase TAO2 (Homo sapiens) (UniProt Q9UL54); conditions: Compound concentration 1000.0 nM
[38] = molecular target: Serine/threonine-protein kinase tousled-like 1 (Homo sapiens) (UniProt Q9UKI8); conditions: Compound concentration 1000.0 nM
[39] = molecular target: Dual specificity protein kinase TTK (Homo sapiens) (UniProt P33981); conditions: Compound concentration 1000.0 nM
[40] = molecular target: Wee1-like protein kinase (Homo sapiens) (UniProt P30291); conditions: Compound concentration 1000.0 nM
[41] = molecular target: Wee1-like protein kinase 2 (Homo sapiens) (UniProt P0C1S8); conditions: Compound concentration 1000.0 nM
[42] = molecular target: Tyrosine-protein kinase Yes (Homo sapiens) (UniProt P07947); conditions: Compound concentration 1000.0 nM
[43] = molecular target: Mitogen-activated protein kinase kinase kinase 20 (Homo sapiens) (UniProt Q9NYL2); conditions: Compound concentration 1000.0 nM
[44] = molecular target: Tyrosine-protein kinase ZAP-70 (Homo sapiens) (UniProt P43403); conditions: Compound concentration 1000.0 nM
[45] = molecular target: 5-hydroxytryptamine receptor 2B (Homo sapiens) (UniProt P41595); conditions: Compound concentration 10.0 uM

Sequence of Sigma non-opioid intracellular receptor 1 (Q99720 whole entry): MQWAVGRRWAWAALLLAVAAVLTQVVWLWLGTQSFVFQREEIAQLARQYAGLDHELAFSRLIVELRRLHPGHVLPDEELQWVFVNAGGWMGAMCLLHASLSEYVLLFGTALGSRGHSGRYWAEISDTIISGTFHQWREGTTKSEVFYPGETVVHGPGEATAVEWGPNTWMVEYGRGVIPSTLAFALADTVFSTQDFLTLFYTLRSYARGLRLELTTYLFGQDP
Sequence of Tyrosine-protein kinase ZAP-70 (Homo sapiens) (P43403 whole entry): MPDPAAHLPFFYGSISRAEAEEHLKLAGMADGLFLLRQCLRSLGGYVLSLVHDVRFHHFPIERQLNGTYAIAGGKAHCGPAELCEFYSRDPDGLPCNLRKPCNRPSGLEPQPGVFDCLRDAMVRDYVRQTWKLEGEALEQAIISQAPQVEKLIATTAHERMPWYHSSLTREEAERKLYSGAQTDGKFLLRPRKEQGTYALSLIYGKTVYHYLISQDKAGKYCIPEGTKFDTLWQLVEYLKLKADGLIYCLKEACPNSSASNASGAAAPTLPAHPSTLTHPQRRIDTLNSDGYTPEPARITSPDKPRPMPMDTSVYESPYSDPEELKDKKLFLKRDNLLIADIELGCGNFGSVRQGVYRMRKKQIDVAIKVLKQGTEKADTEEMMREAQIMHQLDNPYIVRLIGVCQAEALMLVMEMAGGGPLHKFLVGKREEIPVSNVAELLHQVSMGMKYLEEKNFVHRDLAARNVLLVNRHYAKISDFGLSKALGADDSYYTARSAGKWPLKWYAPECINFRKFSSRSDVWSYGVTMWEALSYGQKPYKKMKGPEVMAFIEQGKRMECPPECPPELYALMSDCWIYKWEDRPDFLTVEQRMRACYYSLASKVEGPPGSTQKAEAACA
Sequence of Serine/threonine-protein kinase MRCK alpha (Homo sapiens) (Q5VT25 whole entry): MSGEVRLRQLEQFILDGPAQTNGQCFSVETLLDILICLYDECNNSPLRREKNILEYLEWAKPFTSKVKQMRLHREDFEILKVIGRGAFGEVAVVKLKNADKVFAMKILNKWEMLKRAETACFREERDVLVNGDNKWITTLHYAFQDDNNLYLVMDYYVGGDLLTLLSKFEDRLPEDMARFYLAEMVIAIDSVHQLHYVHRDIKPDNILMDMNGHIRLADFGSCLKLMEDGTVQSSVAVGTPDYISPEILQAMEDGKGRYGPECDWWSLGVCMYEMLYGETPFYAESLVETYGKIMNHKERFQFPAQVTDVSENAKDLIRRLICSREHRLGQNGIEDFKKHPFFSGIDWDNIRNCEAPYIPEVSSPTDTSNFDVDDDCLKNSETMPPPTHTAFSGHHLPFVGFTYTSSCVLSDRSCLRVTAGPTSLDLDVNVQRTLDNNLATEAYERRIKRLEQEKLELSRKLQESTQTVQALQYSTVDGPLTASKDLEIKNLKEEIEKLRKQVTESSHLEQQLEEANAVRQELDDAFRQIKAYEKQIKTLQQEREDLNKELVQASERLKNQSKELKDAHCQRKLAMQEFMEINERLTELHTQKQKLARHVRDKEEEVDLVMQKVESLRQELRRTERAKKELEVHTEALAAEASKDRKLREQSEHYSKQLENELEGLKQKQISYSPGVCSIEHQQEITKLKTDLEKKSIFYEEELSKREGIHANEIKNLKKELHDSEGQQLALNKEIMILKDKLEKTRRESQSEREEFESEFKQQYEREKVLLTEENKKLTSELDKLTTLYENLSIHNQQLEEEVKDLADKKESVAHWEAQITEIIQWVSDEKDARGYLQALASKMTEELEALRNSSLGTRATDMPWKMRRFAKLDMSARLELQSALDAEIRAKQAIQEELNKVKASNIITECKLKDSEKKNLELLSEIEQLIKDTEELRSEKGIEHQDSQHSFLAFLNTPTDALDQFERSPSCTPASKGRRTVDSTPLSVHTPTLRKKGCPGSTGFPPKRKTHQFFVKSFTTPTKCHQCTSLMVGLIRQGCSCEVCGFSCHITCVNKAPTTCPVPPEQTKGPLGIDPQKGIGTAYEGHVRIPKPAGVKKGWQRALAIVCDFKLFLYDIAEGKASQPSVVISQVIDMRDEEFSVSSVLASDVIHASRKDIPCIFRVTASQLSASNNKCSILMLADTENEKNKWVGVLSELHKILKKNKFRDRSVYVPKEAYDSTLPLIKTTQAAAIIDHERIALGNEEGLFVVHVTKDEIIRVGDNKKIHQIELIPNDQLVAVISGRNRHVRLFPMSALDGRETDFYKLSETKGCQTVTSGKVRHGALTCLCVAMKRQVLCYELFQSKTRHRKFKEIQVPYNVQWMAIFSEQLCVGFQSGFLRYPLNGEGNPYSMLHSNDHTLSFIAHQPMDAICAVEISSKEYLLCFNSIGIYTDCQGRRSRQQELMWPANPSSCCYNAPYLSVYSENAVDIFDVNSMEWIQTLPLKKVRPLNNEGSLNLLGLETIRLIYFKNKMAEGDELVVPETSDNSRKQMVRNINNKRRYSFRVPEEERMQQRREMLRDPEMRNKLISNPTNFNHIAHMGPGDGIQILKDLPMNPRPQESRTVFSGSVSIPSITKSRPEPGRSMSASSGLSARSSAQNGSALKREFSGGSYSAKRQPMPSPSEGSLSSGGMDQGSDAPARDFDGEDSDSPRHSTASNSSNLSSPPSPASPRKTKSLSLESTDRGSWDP
Sequence of Serine/threonine-protein kinase PLK3 (Homo sapiens) (Q9H4B4 whole entry, looked up): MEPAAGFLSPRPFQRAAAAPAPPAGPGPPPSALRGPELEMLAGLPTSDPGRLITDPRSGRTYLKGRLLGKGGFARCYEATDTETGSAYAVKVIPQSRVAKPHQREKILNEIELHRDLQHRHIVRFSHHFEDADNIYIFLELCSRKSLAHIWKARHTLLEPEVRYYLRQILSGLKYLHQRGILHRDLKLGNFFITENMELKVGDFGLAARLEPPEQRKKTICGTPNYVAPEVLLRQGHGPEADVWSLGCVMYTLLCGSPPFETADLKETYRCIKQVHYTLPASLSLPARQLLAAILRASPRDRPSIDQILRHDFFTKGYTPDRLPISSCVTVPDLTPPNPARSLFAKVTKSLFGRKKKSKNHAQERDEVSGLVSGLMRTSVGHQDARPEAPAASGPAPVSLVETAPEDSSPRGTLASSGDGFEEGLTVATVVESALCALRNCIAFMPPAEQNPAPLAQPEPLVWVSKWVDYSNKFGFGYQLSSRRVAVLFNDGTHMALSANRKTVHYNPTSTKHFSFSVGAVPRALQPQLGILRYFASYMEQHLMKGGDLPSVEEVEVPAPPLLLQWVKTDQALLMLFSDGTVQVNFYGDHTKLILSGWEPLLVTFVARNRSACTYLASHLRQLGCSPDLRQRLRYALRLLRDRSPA
Sequence of Serine/threonine-protein kinase N2 (Homo sapiens) (Q16513 whole entry, looked up): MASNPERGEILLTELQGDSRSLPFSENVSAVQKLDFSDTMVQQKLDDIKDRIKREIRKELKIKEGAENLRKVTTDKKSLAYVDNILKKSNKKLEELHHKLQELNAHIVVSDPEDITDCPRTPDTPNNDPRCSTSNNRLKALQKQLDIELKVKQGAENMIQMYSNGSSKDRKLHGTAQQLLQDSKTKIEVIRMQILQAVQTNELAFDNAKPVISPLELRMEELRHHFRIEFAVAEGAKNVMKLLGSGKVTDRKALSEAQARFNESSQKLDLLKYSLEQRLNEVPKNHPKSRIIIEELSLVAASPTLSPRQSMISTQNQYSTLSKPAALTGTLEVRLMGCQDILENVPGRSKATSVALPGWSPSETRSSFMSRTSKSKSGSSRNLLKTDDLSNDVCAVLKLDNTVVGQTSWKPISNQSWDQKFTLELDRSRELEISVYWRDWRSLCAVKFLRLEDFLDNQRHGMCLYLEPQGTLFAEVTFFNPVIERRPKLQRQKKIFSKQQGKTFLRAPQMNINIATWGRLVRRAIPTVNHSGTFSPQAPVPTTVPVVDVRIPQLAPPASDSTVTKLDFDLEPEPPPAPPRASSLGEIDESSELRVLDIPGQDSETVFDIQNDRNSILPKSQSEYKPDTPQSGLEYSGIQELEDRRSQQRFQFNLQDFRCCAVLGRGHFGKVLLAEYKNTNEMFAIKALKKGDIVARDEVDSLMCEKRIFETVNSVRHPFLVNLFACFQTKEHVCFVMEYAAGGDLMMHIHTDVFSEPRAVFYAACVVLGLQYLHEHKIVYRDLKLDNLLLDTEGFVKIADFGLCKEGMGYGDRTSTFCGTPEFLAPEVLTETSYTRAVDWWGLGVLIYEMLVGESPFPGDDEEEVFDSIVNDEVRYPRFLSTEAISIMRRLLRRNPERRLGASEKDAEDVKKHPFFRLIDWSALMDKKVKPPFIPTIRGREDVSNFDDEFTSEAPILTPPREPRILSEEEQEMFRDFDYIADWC
Sequence of Glycogen synthase kinase-3 beta (Homo sapiens) (P49841 whole entry, looked up): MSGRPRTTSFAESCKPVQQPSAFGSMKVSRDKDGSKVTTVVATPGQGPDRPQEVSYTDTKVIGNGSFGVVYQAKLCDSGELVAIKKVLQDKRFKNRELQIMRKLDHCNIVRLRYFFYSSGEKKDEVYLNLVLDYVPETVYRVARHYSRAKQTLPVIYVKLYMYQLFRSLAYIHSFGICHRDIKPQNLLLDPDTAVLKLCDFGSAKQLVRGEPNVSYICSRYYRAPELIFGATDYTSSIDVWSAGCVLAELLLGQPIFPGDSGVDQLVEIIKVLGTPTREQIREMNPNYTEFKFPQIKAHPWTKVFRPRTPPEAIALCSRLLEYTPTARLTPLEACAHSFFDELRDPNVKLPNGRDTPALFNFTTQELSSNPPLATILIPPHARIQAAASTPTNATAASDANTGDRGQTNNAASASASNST
Sequence of Dual specificity mitogen-activated protein kinase kinase 2 (Homo sapiens) (P36507 whole entry): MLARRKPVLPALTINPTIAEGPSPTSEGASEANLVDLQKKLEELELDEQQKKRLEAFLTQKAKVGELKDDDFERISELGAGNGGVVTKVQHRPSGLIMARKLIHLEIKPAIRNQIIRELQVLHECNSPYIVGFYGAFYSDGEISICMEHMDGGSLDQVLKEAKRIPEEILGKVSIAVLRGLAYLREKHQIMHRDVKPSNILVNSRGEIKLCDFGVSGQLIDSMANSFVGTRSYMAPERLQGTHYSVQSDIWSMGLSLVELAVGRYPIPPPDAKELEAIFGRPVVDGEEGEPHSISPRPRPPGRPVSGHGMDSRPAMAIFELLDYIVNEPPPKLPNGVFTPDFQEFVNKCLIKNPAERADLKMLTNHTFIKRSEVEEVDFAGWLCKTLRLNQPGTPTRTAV

In the case of `CCC(=N\O)/C(C)=C/c1ccc(F)cc1` [A-079], the Ki ([1]; read-out: Ki) is reported as 505 nM, the Ki ([1]; read-out: pKi (converted)) is reported as 457 nM and the residual activity [2] is reported as 89%. For the same compound, the residual activity [3] was 86%, the residual activity [4] was 100% and the residual activity [5] was 64%. It also gave a residual activity [6] of 69%, a residual activity [7] of 100% and a residual activity [8] of 77%. The residual activity [9] was 93%, the residual activity [10] was 100% and the residual activity [11] was 79%. The residual activity [12] was 79%, the residual activity [13] was 92% and the residual activity [14] was 100%. For the same compound, the residual activity [15] was 100%, the residual activity [16] was 80% and the residual activity [17] was 100%. It also gave a residual activity [18] of 100%, a residual activity [19] of 100% and a residual activity [20] of 94%. It also gave a residual activity [21] of 100%, a residual activity [22] of 100% and a residual activity [23] of 100%. It also gave a residual activity [24] of 87%, a residual activity [25] of 80% and a residual activity [26] of 86%. For the same compound, the residual activity [27] was 75%, the residual activity [28] was 100% and the residual activity [29] was 68%. It also gave a residual activity [30] of 86%, a residual activity [31] of 100% and a residual activity [32] of 100%. For the same compound, the residual activity [33] was 100%, the residual activity [34] was 100% and the residual activity [35] was 100%. It also gave a residual activity [36] of 91%, a residual activity [37] of 94% and a residual activity [38] of 100%. It also gave a residual activity [39] of 96%, a residual activity [40] of 97% and a residual activity [41] of 83%. The residual activity [42] was 87%, the residual activity [43] was 84% and the residual activity [44] was 96%. For the same compound, the inhibition [45] was 24.7%.
For `CCC(=N\O)/C(C)=C/c1ccc(F)c(C)c1` [A-226], the Ki ([1]; read-out: Ki) was 529 nM, the residual activity [2] was 98% and the residual activity [3] was 100%. The residual activity [4] was 75%, the residual activity [5] was 83% and the residual activity [6] was 100%. For the same compound, the residual activity [7] was 76%, the residual activity [8] was 90% and the residual activity [9] was 100%. The residual activity [10] was 100%, the residual activity [11] was 100% and the residual activity [12] was 91%. The residual activity [13] was 100%, the residual activity [14] was 100% and the residual activity [15] was 89%. For the same compound, the residual activity [16] was 90%, the residual activity [17] was 92% and the residual activity [18] was 100%. For the same compound, the residual activity [19] was 67%, the residual activity [20] was 100% and the residual activity [21] was 100%. The residual activity [22] was 100%, the residual activity [23] was 88% and the residual activity [24] was 85%. The residual activity [25] was 100%, the residual activity [26] was 100% and the residual activity [27] was 100%. The residual activity [28] was 98%, the residual activity [29] was 89% and the residual activity [30] was 73%. For the same compound, the residual activity [31] was 100%, the residual activity [32] was 100% and the residual activity [33] was 100%. It also gave a residual activity [34] of 100%, a residual activity [35] of 100% and a residual activity [36] of 100%. For the same compound, the residual activity [37] was 100%, the residual activity [38] was 100% and the residual activity [39] was 93%. It also gave a residual activity [40] of 94%, a residual activity [41] of 100% and a residual activity [42] of 100%. The residual activity [43] was 76%, the residual activity [44] was 38% and the inhibition [45] was 43.8%.

Source: ChEMBL document CHEMBL4507256 (2021)
